Experiments:
Assay type in all cases: cell-based, human
K562 cells = test: Annexin V/PI or 7-AAD flow cytometry of apoptosis, K562; conditions: K562, 5× IC50 (3 10 µM, 6 5 µM, 5 5 µM), staurosporine 1 µM; different incubation times for 3, 6 and 5
Protocol: (§1) The phosphatidylserine on the extracellular side of cell membranes was quantified using an FITC Annexin V Apoptosis Detection Kit I (BD Pharmingen, San Diego, CA, USA) according to the manufacturer’s instruction. 10^6 cells were seeded on a 6-well plate (Nunc). […] The control cells were exposed to 1% DMSO or 1μM staurosporine. After treatment the cells were centrifuged at 700 rpm (120× g) for 5 min, washed twice with cold PBS and then resuspended in 1x binding buffer to a density of 10^6 cells/ml. 100 µL of the resuspended cells was stained in the dark with 5 μl of Annexin V-fluoroscein isothiocyanate (FITC) solution and 10 µL propidium iodide (PI) solution for 15 min at room temperature. The samples were then diluted with 400 μL of a binding buffer and within 1 h analyzed with a flow cytometer (BD FACSCalibur^TM, BD Biosciences, San Jose, CA, USA). After treatment, four populations of cells were assessed: (1) viable (neither apoptotic nor necrotic, Annexin V-FITC and PI negative), (2) apoptotic (Annexin V-FITC positive and PI negative), (3) late apoptotic (Annexin V-FITC and PI positive), and (4) necrotic (Annexin V-FITC negative and PI positive).
0.15 × 10^6 cells/ml were seeded on a 6-well plate (Nunclon, Thermo Fisher Scientific, Waltham, MA, USA). Following 24 h preincubation the cells were treated with either the compound or 1% DMSO (control) for 24 or 48 h. After indicated time, the cells were washed with cold PBS (w/o Mg^2+, Ca^2+), stained with Annexin V (FITC Annexin V Apoptosis Detection Kit with 7-aminoactinomycin D (7-AAD), Biolegend, San Diego, CA, USA) according to manufacturer instructions and analysed using BD FACSCalibur flow cytometer. Obtained Flow Cytometry Standard files were analyzed using BD FACSDiva Software (FACSDiva Version 6.1.3, Becton Dickinson Biosciences, San Jose, CA, USA). The experiment was performed three times in at least two technical replicates.

caspase 3 and 7 = test: Caspase-3/7 activity (Apo-ONE fluorescent assay) in MOLT-4 cells; conditions: 5× IC50, 18 h, normalized to 1% DMSO
Protocol: Louis, MO). The induction of cell apoptosis was analyzed by Apo-ONE® Homogeneous Caspase-3/7 Assay (Promega, Madison, WI, USA). […] The fluorescence in each well was measured in triplicate (excitation at 485 nm, emission measured at 520 nm) using a microplate reader FLUOStar Omega (BMG-Labtech, Offenburg, Germany). For normalization of the data, the caspase activity in the control cells (exposed to 1% DMSO) was taken as 1.0. […] Luminescence was measured (in triplicate) using a microplate reader FLUOStar Omega. For normalization of the data, the caspase activity in the control cells (exposed to 1% DMSO) was taken as 1.0.

MOLT-4 cells = test: Annexin V/PI flow cytometry of apoptosis, MOLT-4; conditions: MOLT-4, 3 h, 5× IC50 (3 45 µM, 6 20 µM, 5 100 µM)
Protocol: as §1

IKZF1 and IKZF3 = IKZF1 and IKZF3 level by immunoblotting in K562 cells; conditions: K562, 48 h, 3 (1 µM), 5 (1 µM), 6 (1 µM)
Protocol: K562 or MOLT4 cells were seeded on 6-well plate (2 × 10^6 cells/well) in a RPMI 1640 medium containing 10% FBS. MOLT4 cells were exposed to 1% DMSO (vehicle control), test compounds 6 (2 µM), 3 (5 µM), 5 (10 µM). Similarly, K562 cells were exposed to 1% DMSO, test compounds 6 (1 µM), 3 (1 µM), 5 (1 µM) for 48 h. Cells treated with 100 µM thalidomide or 10 µM lenalidomide served as positive controls. After incubation, cells were centrifuged (600 rpm, 6 min, 24 °C), washed once with PBS and lysed in 20 mM Tris (pH 7.2) containing 1% Triton X-100 supplemented with Complete® protease inhibitors cocktail (Roche). The levels of IKZF1 and IKZF3 were assessed by immunoblotting (IB).
Cells were lysed in TBS buffer containing 1% Triton X-100 and Complete® protease inhibitor cocktail (Roche) for 15 min on ice with occasional vortexing. Insoluble material was centrifuged (12,000 rpm, 15 min, 4 °C) and supernatants were collected. Total protein concentration was measured with DC Protein Assay (Bio-Rad, Hercules, CA, USA). Cell lysates containing 30 µg of total protein were mixed with Laemli buffer supplemented with SDS and β-mercaptoethanol, denatured (10 min, 95 °C) and subjected to sodium dodecyl sulfate polyacrylamide gel electrophoresis (SDS-PAGE) electrophoresis (4% stacking and 10% resolving gels). Resolved proteins were electrotransferred (semi-dry, 90 min, 1.5 mA/cm^2) to a 0.45 µm nitrocellulose membrane (Thermo Scientific, Waltham, MA, USA). Membranes were blocked for 2 hours in TBST buffer (20 mM Tris-HCl pH 7.5, 0.9% NaCl, 0.1% Tween 20) containing 5% BSA (BioShop, Burlington, ON, Canada) and probed with primary antibodies (overnight at 4 °C) diluted in TBST buffer with 0.5% BSA. Tubulin served as a loading control for IB experiments. Anti IKZF3 (rabbit monoclonal, dilution 1:500), anti IKZF1 (rabbit polyclonal, dilution 1:500) were from Abcam. Anti IRF4 (rabbit polyclonal, dilution 1:500) were from Cell Signaling Technology. […] Protein bands intensities were analysed using Image Quant (version 5.0, GE Healthcare Life Sciences, Pittsburgh, PA, USA).

Structure (SMILES)	apoptotic cells, early (LR) and late (UR) (K562 cells)	activation of caspase 3/7 (caspase 3 and 7)	apoptotic cells (MOLT-4 cells)	level of IKZF1 and IKZF3 (immunoblotting) (IKZF1 and IKZF3)
CN(C)CCN1C(=O)C2C(C1=O)C1(c3ccccc3)CC2(c2ccccc2)C(c2ccccc2)=C1c1ccccc1 (stereo not drawn) [Compound 6]	more than 90%	strong activation	~99%	significant diminution
CCC12C(=O)C(CC)(C(c3ccccc3)=C1c1ccccc1)C1C(=O)N(CCN3CCCCC3)C(=O)C12 (stereo not drawn) [Compound 3]	about 44%	strong activation	about 76%	modest reduction
CCC12C(=O)C(CC)(C(c3ccccc3)=C1c1ccccc1)C1C(=O)N(CC(O)CNC(C)C)C(=O)C12 (stereo not drawn) [Compound 5]	more than 90%	strong activation	~78%	significant diminution
